Experimental data as given in patent publication US20250171459A1, “2-METHYL-4',5'-DIHYDROSPIRO[PIPERIDINE-4,7'-THIENO[2,3-C]PYRAN] DERIVATIVES AS INHIBITORS OF APOL1 AND METHODS OF USING SAME” (Vertex Pharmaceuticals Incorporated, priority 2022, published 2025).

Target: T1, APOL1 (Homo sapiens, UniProt O14791)
T1 sequence (O14791 1-398 S342G/I384M): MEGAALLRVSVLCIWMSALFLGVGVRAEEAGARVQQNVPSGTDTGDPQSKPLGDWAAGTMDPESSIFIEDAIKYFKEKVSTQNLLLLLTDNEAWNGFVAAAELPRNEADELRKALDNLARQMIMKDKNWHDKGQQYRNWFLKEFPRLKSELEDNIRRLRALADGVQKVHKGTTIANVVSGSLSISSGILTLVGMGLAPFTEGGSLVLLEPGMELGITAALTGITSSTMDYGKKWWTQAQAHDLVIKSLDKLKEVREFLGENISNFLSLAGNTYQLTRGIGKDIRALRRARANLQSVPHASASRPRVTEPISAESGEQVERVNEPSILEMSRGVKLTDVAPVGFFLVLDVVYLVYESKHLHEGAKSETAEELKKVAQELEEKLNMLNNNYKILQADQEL
Assay: MultiTox-Fluor Multiplex Cytotoxicity Assay in tet-inducible APOL1 T-REx-HEK293 cells (cell rescue, ratio of dead to live cells)
Assay type: cell-based
Conditions: tet-inducible transgenic APOL1 T-REx-HEK293 cell lines, 50 ng/mL tet, 24 hours; read-out: IP50 (i.e., IC50 for cell proliferation)
Summary of the method: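 T-REx-HEK293 cells with tet-inducible APOL1 were treated with compound (10 μM top, 10-point 3-fold dilution, duplicate) plus 50 ng/mL tetracycline for 24 h at 37° C, in DMEM with 2% tet-free FBS. MultiTox-Fluor protease signals gave a dead/live ratio, normalized to no tet (100% viability) and tet alone (0%).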

CCc1cc2c(s1)CCOC21CCN(Cc2cn(CCS(N)(=O)=O)nn2)CC1 [Compound 1080]
IC50: 100 to 500 nM

CCc1cc2c(s1)CCOC21CCN(Cc2cn(CCc3noc(C)n3)nn2)CC1 [Compound 1109]
IC50: 500 to 1000 nM

CCc1cc2c(s1)CCO[C@@]21CCN(C[C@H]2C[C@@H](NC(=O)CCN3CCCC3=O)C2)[C@@H](C)C1 [Compound 366]
IC50: 100 to 500 nM

C[C@H]1C[C@@]2(CCN1CCC1CCOCC1)OC[C@H](O)c1cc(Cl)sc12 [Compound 779]
IC50: 500 to 1000 nM

Cc1cccc(CN2CC[C@]3(C[C@@H]2C)OCCc2c3sc(Cl)c2CO)n1 [Compound 739]
IC50: 500 to 1000 nM

CCc1cc2c(s1)CCO[C@@]21CCN(C2CC[C@@H](NC(=O)OC(C)(C)C)C2)[C@@H](C)C1 (single isomer, unassigned) [Compound 296]
IC50: 100 to 500 nM

C[C@H]1C[C@@]2(CCN1Cc1cnn(CC(O)C3(O)CCOCC3)c1)OCCc1c2sc(C(F)(F)F)c1CO (stereo partly drawn) [Compound 930, 4-[1-hydroxy-2-[4-[[(2′S, 7R)-3-(hydroxymethyl)-2′-methyl-2-(trifluoromethyl)spiro[4,5-dihydro-thieno[2,3-c]pyran-7,4′-piperidine]-1′-yl]methyl]pyrazol-1-yl]ethyl]tetrahydropyran-4-ol]
IC50: < 100 nM

CCc1cc2c(s1)CCOC21CCN(Cc2ccc(C(=O)NCCOCCO)nc2)CC1 [Compound 1063]
IC50: 100 to 500 nM

C[C@H]1C[C@@]2(CCN1Cc1cn(CCCS(C)(=O)=O)nn1)OCCc1c2sc(C(F)(F)F)c1CO [Compound 1001]
IC50: 100 to 500 nM

COc1cnc(CN2CC[C@]3(C[C@@H]2C)OC[C@H](O)c2cc(Cl)sc23)cn1 [Compound 783]
IC50: 100 to 500 nM

CCc1cc2c(s1)CCO[C@@]21CCN(Cc2cn(CC3(C)CCOCC3)nn2)[C@@H](C)C1 [Compound 114]
IC50: 100 to 500 nM

CCc1cc2c(s1)CCOC21CCN(Cc2cn(CC(C)S(C)(=O)=O)nn2)CC1 (stereo not shown) [Compound 1088]
IC50: 500 to 1000 nM

COc1ncc(CN2CC[C@]3(C[C@@H]2C)OCCc2cc(Cl)sc23)cn1 [Compound 651]
IC50: < 100 nM

C[C@H]1C[C@@]2(CCN1Cc1ccc3c(c1)n(C)c(=O)n3C)OCCc1cc(Cl)sc12 [Compound 664]
IC50: < 100 nM

CCc1cc2c(s1)CCOC21CCN(Cc2ccc(C(=O)NCC(C)O)nc2)CC1 (stereo not shown) [Compound 1061]
IC50: 100 to 500 nM

CCc1cc2c(s1)CCO[C@@]21CCN(Cc2cn(CCS(=O)(=O)C(C)(C)C)nn2)[C@@H](C)C1 [Compound 159]
IC50: 100 to 500 nM

CCc1cc2c(s1)CCO[C@@]21CCN(CC(O)c2ccccc2Cl)[C@@H](C)C1 (stereo partly shown) [Compound 254]
IC50: < 100 nM

C[C@H]1C[C@@]2(CCN1Cc1cnn(CC(C)(O)CO)c1)OC[C@@H](O)c1cc(C(F)(F)F)sc12 (stereo partly shown) [Compound 972]
IC50: < 100 nM

C[C@H]1C[C@@]2(CCN1Cc1cccc(Cl)c1O)OCCc1cc(Cl)sc12 [Compound 690]
IC50: 500 to 1000 nM

CCc1cc2c(s1)CCOC21CCN(Cc2cn(CC3(O)CCOC3)nn2)C(C)C1 (stereo not shown) [Compound 77]
IC50: 500 to 1000 nM

CCc1cc2c(s1)CCO[C@@]21CCN(CC#N)[C@@H](C)C1 [Compound 292]
IC50: 100 to 500 nM

C[C@H]1C[C@@]2(CCN1Cc1cnn(CCS(C)(=O)=O)c1)OC[C@@](O)(C(F)F)c1cc(Cl)sc12 [Compound 834]
IC50: < 100 nM

C[C@H]1C[C@@]2(CCN1Cc1cn[nH]c1)OC[C@@H](O)c1cc(C(F)(F)F)sc12 [Compound 874, (2′S,4S,7R)-2′-methyl-1′-(1H-pyrazol-4-ylmethyl)-2-(trifluoromethyl)spiro[4,5-dihydrothieno[2,3-c]pyran-7,4′-piperidine]-4-ol]
IC50: < 100 nM

C[C@H]1C[C@@]2(CCN1CC(C)(C)O)OCCc1cc(CC(F)F)sc12 [Compound 603]
IC50: 100 to 500 nM

C[C@H]1C[C@@]2(CCN1Cc1cn(CCS(C)(=O)=O)nn1)OC[C@](O)(C(F)F)c1cc(Cl)sc12 [Compound 832]
IC50: < 100 nM

CCc1cc2c(s1)CCO[C@@]21CCN(Cc2cn(CC3(C)COC3)nn2)[C@@H](C)C1 [Compound 118]
IC50: 100 to 500 nM

COCCc1ncc(CN2CC[C@]3(C[C@@H]2C)OCCc2cc(Cl)sc23)cn1 [Compound 640]
IC50: 100 to 500 nM

CCc1cc2c(s1)CCO[C@@]21CCN(C[C@H]2C[C@H](N)C2)[C@@H](C)C1 [Compound 419, 3-[[(2′S,4R)-2-ethyl-2′-methyl-spiro[6,7-dihydrothieno[3,2-c]pyran-4,4′-piperidine]-1′-yl]methyl]cyclobutanamine]
IC50: 500 to 1000 nM

C[C@H]1C[C@@]2(CCN1Cc1cnn(CC3(CO)COC3)c1)OCCc1c2sc(C(F)(F)F)c1CO [Compound 915]
IC50: < 100 nM

CCc1cc2c(s1)CCO[C@@]21CCN(CC2CN(C(=O)Cc3sc(O)nc3O)C2)[C@@H](C)C1 [Compound 488]
IC50: < 100 nM

C[C@H]1C[C@@]2(CCN1Cc1cccc(F)c1O)OCCc1cc(Cl)sc12 [Compound 687]
IC50: 500 to 1000 nM

CCc1cc2c(s1)CCOC21CCN(Cc2ccc(N[C@H]3CC[C@H](O)CC3)nc2)CC1 [Compound 1067]
IC50: < 100 nM

COC1CO[C@@]2(CCN(Cc3cnn(CCS(C)(=O)=O)c3)[C@@H](C)C2)c2sc(Cl)cc21 (single isomer, unassigned) [Compound 842, (2′S, 7R)-2-chloro-4-methoxy-2′-methyl-1′-[[1-(2-methylsulfonylethyl)pyrazol-4-yl]methyl]spiro[4,5-dihydrothieno[2,3-c]pyran-7,4′-piperidine]]
IC50: < 100 nM

CCc1cc2c(s1)CCOC21CCN(Cc2ccc(S(C)(=O)=O)cc2F)CC1 [Compound 1154]
IC50: 500 to 1000 nM

CCc1cc2c(s1)CCO[C@@]21CCN(Cc2cnc(NC(C)(C)CO)nc2)[C@@H](C)C1 [Compound 201, 2-[[5-[[(2′S,4R)-2-ethyl-2′-methyl-spiro[6,7-dihydrothieno[3,2-c]pyran-4,4′-piperidine]-1′-yl]methyl]pyrimidin-2-yl]amino]-2-methyl-propan-1-ol]
IC50: < 100 nM

CCc1cc2c(s1)CCOC21CCN(Cc2cnn(C)c2)C(C)(C)C1 (stereo not shown) [Compound 498, 2-ethyl-2′,2′-dimethyl-1′-[(1-methylpyrazol-4-yl)methyl]spiro[6,7-dihydrothieno[3,2-c]pyran-4,4′-piperidine]]
IC50: 500 to 1000 nM

COc1cc(OCC(N)=O)ccc1CN1CC[C@@]2(C[C@H]1C)OCCc1cc(Cl)sc12 [Compound 655]
IC50: < 100 nM

Cc1ncccc1CN1CC[C@]2(C[C@@H]1C)OCCc1c2sc(Cl)c1CO [Compound 736]
IC50: 500 to 1000 nM

CCc1cc2c(s1)CCOC21CCN(CC2CCN(S(C)(=O)=O)CC2)CC1 [Compound 1151]
IC50: 500 to 1000 nM

COc1cccc(CN2CC[C@]3(C[C@@H]2C)OCCc2cc(Cl)sc23)n1 [Compound 689]
IC50: 500 to 1000 nM

C[C@H]1C[C@@]2(CCN1Cc1cnn(CC(C)(CO)CO)c1)OC[C@](O)(C(F)F)c1cc(Cl)sc12 [Compound 833]
IC50: < 100 nM

C[C@H]1C[C@@]2(CCN1CC1CNC(=O)C1)OCCc1cc(CC(F)F)sc12 (stereo partly shown) [Compound 621]
IC50: < 100 nM

CCc1cc2c(s1)CCO[C@@]21CCN(CC2CN(C(=O)C3COCCO3)C2)[C@@H](C)C1 (stereo partly shown) [Compound 440]
IC50: < 100 nM

CCc1cc2c(s1)CCO[C@@]21CCN(Cc2cnc(N[C@@H](CO)[C@@H](C)O)nc2)[C@@H](C)C1 [Compound 229]
IC50: < 100 nM

CCc1cc2c(s1)CCO[C@@]21CCN(Cc2cn(C3(CO)CC3)nn2)[C@@H](C)C1 [Compound 127]
IC50: 500 to 1000 nM

C[C@H]1C[C@@]2(CCN1C1CCCC1O)OCCc1cc(C(F)(F)F)sc12 (stereo partly drawn) [Compound 864, 2-[(2′S,7R)-2′-methyl-2-(trifluoromethyl)spiro[4,5-dihydrothieno[2,3-c]pyran-7,4′-piperidine]-1′-yl]cyclopentanol]
IC50: 100 to 500 nM

CCc1cc2c(s1)CCO[C@@]21CCN(Cc2cn([C@H]3C[C@H](O)C3)nn2)[C@@H](C)C1 [Compound 151]
IC50: < 100 nM

CCc1cc2c(s1)CCO[C@@]21CCN(Cc2cn(CC(CC)(CC)OC)nn2)[C@@H](C)C1 [Compound 97]
IC50: < 100 nM

CNC(=O)Cn1cc(CN2CC[C@]3(C[C@@H]2C)OCCc2cc(Cl)sc23)cn1 [Compound 703]
IC50: < 100 nM

CC(O)Cn1cc(CN2CC[C@]3(C[C@@H]2C)OCCc2c3sc(C(F)(F)F)c2CO)cn1 (stereo partly shown) [Compound 931]
IC50: < 100 nM

CCc1cc2c(s1)CCO[C@@]21CCN(C[C@H]2C[C@@H](NC(=O)c3ncccc3O)C2)[C@@H](C)C1 [Compound 345]
IC50: 100 to 500 nM

COc1ccc(CN2CC[C@]3(C[C@@H]2C)OC[C@H](O)c2cc(Cl)sc23)cc1OCC(N)=O [Compound 772]
IC50: < 100 nM

C[C@H]1C[C@@]2(CCN1Cc1cnn(CC(O)CC3(C#N)CC3)c1)OC[C@@H](O)c1cc(C(F)(F)F)sc12 (stereo partly shown) [Compound 973]
IC50: < 100 nM

CCc1cc2c(s1)CCO[C@@]21CCN(Cc2cn(Cc3cnco3)nn2)[C@@H](C)C1 [Compound 34]
IC50: < 100 nM

CCc1cc2c(s1)CCO[C@@]21CCN(CC2CN(C(=O)[C@@H](C)NS(C)(=O)=O)C2)[C@@H](C)C1 [Compound 473]
IC50: 100 to 500 nM

CCc1cc2c(s1)CCO[C@@]21CCN(Cc2cn(CC3(C4CCOCC4)CC3)nn2)[C@@H](C)C1 [Compound 105]
IC50: 500 to 1000 nM

COc1cc(CN2CC[C@]3(C[C@@H]2C)OCCc2c3sc(Cl)c2CO)ccc1OCC(N)=O [Compound 742]
IC50: < 100 nM

C[C@H]1C[C@@]2(CCN1Cc1cn(C)nn1)OCCc1cc(CC(F)F)sc12 [Compound 566]
IC50: < 100 nM
